Values of other authors, collected in the CATMoS acute toxicity set (Mansouri et al. 2021).

Test: rat acute oral toxicity
Conditions: in vivo
Excerpt: […]The data set underlying the modeling effort for this project was initially compiled by NICEATM and U.S. EPA’s CCTE. Briefly, LD50 data were collected from rat acute oral systemic toxicity tests, including limit tests, ranges/confidence intervals, and discrete LD50 values. The full data set included 21,200 LD50 entries for 15,688 substances. […] Data were reviewed to ensure that LD50 values with obvious errors in the extracted data such as unit conversion errors (e.g., comma and decimal separator misplacements) were either fixed or removed. After this review, 16,209 LD50 values remained. Many of the chemicals represented had multiple LD50 entries, requiring that a single representative value per Chemical Abstracts Service Registry Number (CASRN) identifier be defined to facilitate modeling efforts. Based on ATWG feedback and to define the representative LD50 as a protective value while accounting for the distribution across multiple LD50s, the median of the lowest quartile was computed using only discrete LD50 values (omitting limit test data and range and confidence interval data). A detailed summary of the data compilation is available online on the NICEATM webpage dedicated to the collaborative modeling project (NTP 2020).
[…][…] For categorical designations, limit test and range/confidence interval LD50 data were integrated wherever possible. As such, the number of chemicals with end point values/calls varies across the modeling end points (Table 3) based on whether chemicals had representative LD50 values and/or other data. If a chemical had both, the representative value was used to determine categorical calls rather than limit test data. Some data were useable only for certain end points and categories depending on the thresholds. For example, ranges that spanned multiple hazard categories were considered only for the binary (very toxic/nontoxic) end points and omitted from rendering a determination for hazard category assignment.
[…]The final data set comprising 11,992 chemicals was split into training and evaluation sets […], respectively. This process was performed semirandomly by ordering chemicals based on the five end points (categorical and continuous LD50 values) and partitioning every fourth record into the evaluation set accordingly. This approach was taken to ensure an equivalent distribution of the LD50 values and the different hazard categories between the training and the evaluation sets without supervised sampling of the chemicals based on structures (Figure 1A). The sources of the chemical structures were also kept equivalent between the two sets, with chemical structures obtained from DSSTox, being the highest quality, representing over 75% of each set (Figure 1B).

Row | Compound | LD50
1 | CCCN(CCC)c1c([N+](=O)[O-])cc(C)cc1[N+](=O)[O-] | 3600 mg/kg
2 | O=S(=O)(O)c1c(O)ccc2ccccc12 | 3170 mg/kg
3 | CCN[C@H]1C[C@H](C)S(=O)(=O)c2sc(S(N)(=O)=O)cc21 | 1930 mg/kg
4 | CCCCCCOC(=O)C(O)c1ccccc1 (stereo unspecified) | 17000 mg/kg
5 | C=COCCSCC | 4920 mg/kg
6 | CCOc1ccccc1N1CCN(CCCc2ccc3c(c2)CCC(=O)N3)CC1 | 500 mg/kg
7 | CC(C)NNC(=O)c1ccncc1 | 365 mg/kg
8 | CCOP(=S)(OCC)SCSC(C)C | 1.1 mg/kg
9 | Cc1n[nH]c(=O)c2noc(C)c12 | 1000 mg/kg
10 | CO[C@@H]1[C@@H](OC(N)=O)[C@@H](O)[C@H](Oc2ccc3c(O)c(NC(=O)c4ccc(O)c(CC=C(C)C)c4)c(=O)oc3c2C)OC1(C)C | 3500 mg/kg
11 | CCOC(=O)CC(=O)OC(Br)C(Cl)(Cl)Cl (stereo unspecified) | 2600 mg/kg
12 | O=NN1CCCCCCCC1 | 566 mg/kg
13 | CC(C)NCC(O)COc1ccc(CCOCC2CC2)cc1 (stereo unspecified) | 998 mg/kg
14 | Cc1cc(=O)oc2cc(OP(=O)(OCCCl)OCCCl)ccc12 | 141 mg/kg
15 | CCSC(SCC)c1ccccc1OC(=O)NC | 500 mg/kg
16 | Oc1c(Cl)cc(Cl)cc1Sc1cc(Cl)cc(Cl)c1O | 492 mg/kg
17 | CCCC[C@H](C)[C@H](O)C#C[C@H]1CCC(=O)[C@@H]1CC=CCCCC(=O)OC | 338 mg/kg
18 | C/N=N/Nc1ccccc1 | 420 mg/kg
19 | O=c1[nH]c(=O)n([C@H]2C[C@H](O)[C@@H](CO)O2)cc1F | 215 mg/kg
20 | Oc1ccc(N=Cc2ccccc2)cc1 | 3500 mg/kg
21 | Cc1onc(-c2c(F)cccc2Cl)c1C(=O)N[C@@H]1C(=O)N2[C@@H]1SC(C)(C)[C@@H]2C(=O)O | 11000 mg/kg
22 | Cn1c(=O)c2c(ncn2CCCCCN2CCN(c3ccc(Cl)cc3)CC2)n(C)c1=O | 353 mg/kg
23 | CCCOc1cc(C=CC(=S)OCC)ccc1OC | 970 mg/kg
24 | COC(=O)/C=C(\C)OP(=O)(OC)OC | 3 mg/kg
25 | COC(=O)CC1CCCCC1 | 2500 mg/kg

Row | Compound | LD50
26 | O=C(Cl)C(Br)CBr (stereo unspecified) | 1200 mg/kg
27 | COc1cc2c(cc1OC)-c1c(OC)c(OC)cc3c1[C@H](C2)N(C)CC3 | 545 mg/kg
28 | CN(C)CCOCCOC(=O)N1c2ccccc2Sc2ccccc21 | 1500 mg/kg
29 | O=[N+]([O-])c1ccc(Oc2c(Cl)cc(Cl)cc2Cl)cc1 | 10800 mg/kg
30 | CC(C)(C)NCC(O)COc1ccccc1OCC1CCCO1 (stereo unspecified) | 1090 mg/kg
31 | O=c1[nH]c2cc(Cl)c(Cl)cc2o1 | 700 mg/kg
32 | CC(C)COP(=S)(S)OCC(C)C | 3000 mg/kg
33 | COc1ccc2c(c1)c(CC(=O)Oc1ccccc1C(=O)Oc1ccccc1C(=O)O)c(C)n2C(=O)c1ccc(Cl)cc1 | 63 mg/kg
34 | Nc1ccc2c(S(=O)(=O)O)cccc2c1S(=O)(=O)O | 5430 mg/kg
35 | O=NN(CCCC(F)(F)F)CCCC(F)(F)F | 750 mg/kg
36 | COCCN1C(=O)C2C3C=C(C(O)(c4ccccc4)c4ccccn4)C(C3=C(c3ccccc3)c3ccccn3)C2C1=O (stereo unspecified) | 9 mg/kg
37 | Cc1nc(C(C)C)c(=O)[nH]c1C | 903 mg/kg
38 | CC[C@@H](C(=O)[C@@H](C)[C@@H](O)[C@H](C)CCc1ccc(C)c(O)c1C(=O)O)[C@H]1O[C@](CC)([C@H]2CC[C@](O)(CC)[C@H](C)O2)C[C@@H]1C | 122 mg/kg
39 | CCCC[P+](CCCC)(CCCC)Cc1ccc(Cl)cc1Cl | 178 mg/kg
40 | CCCCNS(=O)(=O)c1ccccc1 | 2050 mg/kg
41 | C[Si]1(C)N[Si](C)(C)N[Si](C)(C)N1 | 500 mg/kg
42 | C[Si](Cl)(Cl)Cl | 800 mg/kg
43 | CCCCCCCCCCCCOC(=O)Cc1ccc(N(CCCl)CCCl)cc1 | 72 mg/kg
44 | CC(O)CNC(C)(C)Cc1ccc(Cl)cc1 (stereo unspecified) | 150 mg/kg
45 | CC(C)=CCC(CCN(C)C)(C(N)=O)c1cccc2ccccc12 (stereo unspecified) | 143 mg/kg
46 | CC[N+](CC)(CC)CCO | 1000 mg/kg
47 | C=CC[C@@H]1C=C(C)C[C@H](C)C[C@H](OC)[C@H]2O[C@@](O)(C(=O)C(=O)N3CCCC[C@H]3C(=O)O[C@H](/C(C)=C/[C@@H]3CC[C@@H](O)[C@H](OC)C3)[C@H](C)[C@@H](O)CC1=O)[C@H](C)C[C@@H]2OC | 134 mg/kg
48 | CC(=O)OC1(C)CC(C)C(=O)C(C(O)CC2CC(=O)NC(=O)C2)C1 (stereo unspecified) | 0.158 mg/kg
49 | CCN(Cc1ccncc1)N=O | 40 mg/kg
50 | CCOC(CN1CCN(CC(C)C(=O)c2ccccc2)CC1)c1ccccc1 (stereo unspecified) | 763 mg/kg

Row | Compound | LD50
51 | CC(=O)CCCCCCCC(=O)O | 3100 mg/kg
52 | CCCCCCCCCCCCCCOC(=O)Cc1ccc(N(CCCl)CCCl)cc1 | 46 mg/kg
53 | O=C=NCC1CCC(CN=C=O)CC1 (stereo unspecified) | 1600 mg/kg
54 | CCC1(CC)C(=O)C=CN(CN2CCNCC2)C1=O | 1340 mg/kg
55 | CNC(=O)Oc1cc(C)c(NC(=O)O)c(C)c1 | 71 mg/kg
56 | O=C(NCCO)c1ccccc1O | 4300 mg/kg
57 | Fc1ccc(Br)cc1 | 2700 mg/kg
58 | Brc1cnc[nH]1 | 250 mg/kg
59 | NC(=O)Cc1cccc2ccccc12 | 1690 mg/kg
60 | CC/C=C1/OC(=O)c2ccccc21 | 1650 mg/kg
61 | CC(C)c1cccc(OC(=O)N(C)N=O)c1 | 400 mg/kg
62 | CN(C)c1ccncc1 | 250 mg/kg
63 | C[N+](C)(C)CCOC(N)=O | 40 mg/kg
64 | Cc1cccn2c(=O)c(-c3nnn[nH]3)cnc12 | 687 mg/kg
65 | COC(=S)SSC(Cl)(Cl)Cl | 1540 mg/kg
66 | c1ccc(CCc2ccccc2)cc1 | 4520 mg/kg
67 | CCC(C)OC(C)=O (stereo unspecified) | 3200 mg/kg
68 | NS(=O)(=O)c1cc(-c2nnn[nH]2)c(NCc2cccs2)cc1Cl | 2540 mg/kg
69 | CCCCn1c(=O)n(CCC)c(=O)c2[nH]c(C)nc21 | 15 mg/kg
70 | c1ccc2c(c1)CN1CCN=C1N2 | 900 mg/kg
71 | CCCCC(C#N)(Cn1ccnc1)c1ccccc1 (stereo unspecified) | 1590 mg/kg
72 | CNC(=O)O/N=C(\C)C(C)S(C)(=O)=O (stereo unspecified) | 458 mg/kg
73 | N#CC(CCN1CCC(C(N)=O)(N2CCCCC2)CC1)(c1ccccc1)c1ccccc1 | 320 mg/kg
74 | CC(C)=CCOC(=O)c1ccccc1 | 4700 mg/kg
75 | C/C(=C1\CCOC(=O)S1)N(C=O)Cc1cnc(C)nc1N | 7600 mg/kg

Row | Compound | LD50
76 | C=COCCOCCO | 4930 mg/kg
77 | CC(C)(Oc1ccc(CCNC(=O)c2ccc(Cl)cc2)cc1)C(=O)O | 1080 mg/kg
78 | CCCCCC(=O)NP(=O)(OC)SC (stereo unspecified) | 25 mg/kg
79 | O=C1CCc2cc(C(=O)CCN3CCN(c4cccc(Cl)c4)CC3)ccc2N1 | 500 mg/kg
80 | COCCOc1c(OC)cc(Cc2cnc(N)nc2N)cc1OC | 1170 mg/kg
81 | CSc1ccc2c(c1)N(CCCN(C)C)c1ccccc1S2 | 1450 mg/kg
82 | O=C(O)Cc1ccc(-c2ccccc2)cc1 | 164 mg/kg
83 | COP(=O)(OC)Oc1nc(Cl)c(Cl)cc1Cl | 869 mg/kg
84 | O=[N+]([O-])O[C@H]1CO[C@H]2[C@@H]1OC[C@H]2O[N+](=O)[O-] | 747 mg/kg
85 | CC1(C)NC(=O)N(c2ccc([N+](=O)[O-])c(C(F)(F)F)c2)C1=O | 195 mg/kg
86 | COc1ccccc1 | 3700 mg/kg
87 | CCOP(=O)(OCC)OC(=C(Cl)Cl)c1ccc(Cl)cc1Cl | 30.2 mg/kg
88 | CN(N=O)C(C)(C)c1ccccc1 | 2100 mg/kg
89 | CNC(=O)Oc1cccc2c1OC(C)(C)CC2 | 3 mg/kg
90 | CSC(C)=NOC(=O)N(C)SN(C)C(=O)Oc1ccc(C(C)(C)c2ccc(OC(=O)N(C)SN(C)C(=O)ON=C(C)SC)cc2)cc1 | 508 mg/kg
91 | CN(C)c1ccc(N)c2ccccc12 | 400 mg/kg
92 | CCCSP(=O)(OCC)Oc1c(Cl)cc(Cl)cc1Cl (stereo unspecified) | 151 mg/kg
93 | CCc1c(C)nc2ccccn2c1=O | 1000 mg/kg
94 | CN(C)c1cccc2nc3cccc([N+](=O)[O-])c3cc12 | 24 mg/kg
95 | CC(C)C(=O)OCCc1ccccc1 | 5200 mg/kg
96 | CNC(=O)Oc1cccc(N=CN(C)C)c1 | 20 mg/kg
97 | COCCCO | 5710 mg/kg
98 | Oc1cccc2cccnc12 | 1200 mg/kg
99 | COC(=O)C(C)Oc1ccc(Oc2ncc(C(F)(F)F)cc2Cl)cc1 (stereo unspecified) | 393 mg/kg
100 | CCN(CC)CCOCc1cc(Br)ccc1OC | 220 mg/kg

Row | Compound | LD50
101 | O=C1c2ccccc2C(=O)C1c1ccc(Cl)cc1 | 290 mg/kg
102 | Cc1ccc(Cl)cc1Cl | 2400 mg/kg
103 | NCc1cc(O)no1 | 45 mg/kg
104 | CC(=O)C1=C(O)[C@@H]2[C@H]3c4c[nH]c5cccc(c45)C[C@H]3C(C)(C)N2C1=O | 36 mg/kg
105 | ClCC(Cl)(Cl)C(Cl)Cl | 819 mg/kg
106 | CC(C)=CCN1CC[C@@]2(C)c3cc(O)ccc3C[C@@H]1[C@@H]2C (racemic) | 1110 mg/kg
107 | CN(C)C(=N)NC#N | 3840 mg/kg
108 | CNC(=O)ON=C(CSC)C(C)(C)C | 8.5 mg/kg
109 | Clc1cc2c(c(Cl)c1Cl)Oc1c(Cl)c(Cl)c(Cl)c(Cl)c1O2 | 6.33 mg/kg
110 | CC(C)CS | 7170 mg/kg
111 | CCCCOCCC#N | 7460 mg/kg
112 | CCCC(=O)OC/C=C(\C)CCC=C(C)C | 10700 mg/kg
113 | CCC(=O)CC | 2140 mg/kg
114 | CCCOC=O | 3980 mg/kg
115 | Nc1ccc(CCNCC(O)c2ccccc2)cc1 (stereo unspecified) | 200 mg/kg
116 | Cc1ccc2[nH]c(=S)[nH]c2c1 | 340 mg/kg
117 | CNC(C)C#N (stereo unspecified) | 48 mg/kg
118 | CC(C(=O)O)c1ccc(N2CC=CC2)c(Cl)c1 (stereo unspecified) | 351 mg/kg
119 | CCN(CC)CCOC(=O)c1ccc(NCc2c(CO)cnc(C)c2O)cc1 | 5900 mg/kg
120 | c1coc(-c2nc3ccccc3[nH]2)c1 | 500 mg/kg
121 | FC(F)(Cl)C(Cl)Cl | 3290 mg/kg
